CC(=O)N[C@@H](CC(C)C)C(=O)O
solubility (mole fraction)
Conditions | 283.15 K | 288.15 K | 293.15 K | 298.15 K | 303.15 K | 308.15 K | 313.15 K | 318.15 K | 323.15 K
in acetone | 0.00363 | 0.00434 | 0.00525 | 0.0062 | 0.00734 | 0.00886 | 0.0106 | 0.0124 | 0.0146
in acetonitrile | 0.000712 | 0.000811 | 0.00114 | 0.00141 | 0.00163 | 0.00198 | 0.00249 | 0.00295 | 0.00335
in ethanol | 0.0243 | 0.0278 | 0.0314 | 0.0353 | 0.0396 | 0.0456 | 0.0504 | 0.0567 | 0.0624
in ethyl acetate | 0.00103 | 0.00127 | 0.0015 | 0.00178 | 0.00207 | 0.00243 | 0.0028 | 0.00328 | 0.00374
in isobutanol | 0.0148 | 0.0176 | 0.0206 | 0.0242 | 0.0283 | 0.0328 | 0.0375 | 0.0425 | 0.0478
in isopropanol | 0.0177 | 0.0206 | 0.0238 | 0.0274 | 0.0313 | 0.0354 | 0.0405 | 0.0464 | 0.0526
in methanol | 0.0309 | 0.0357 | 0.0403 | 0.0456 | 0.0514 | 0.0589 | 0.066 | 0.0729 | 0.0824
in methyl acetate | 0.00106 | 0.00134 | 0.00159 | 0.00191 | 0.00223 | 0.00259 | 0.0033 | 0.00396 | 0.00453
in n-butanol | 0.017 | 0.0192 | 0.0221 | 0.0255 | 0.0291 | 0.0331 | 0.0379 | 0.0429 | 0.0489
in n-propanol | 0.0196 | 0.0223 | 0.0251 | 0.0286 | 0.0329 | 0.0376 | 0.0424 | 0.0478 | 0.0541
in n-propyl acetate | 0.00087 | 0.00107 | 0.00126 | 0.00149 | 0.00177 | 0.00211 | 0.00249 | 0.003 | 0.00357
in sec-butanol | 0.0177 | 0.0207 | 0.0241 | 0.0279 | 0.0325 | 0.037 | 0.042 | 0.0473 | 0.0541
